We go through 18 compounds from patent US20250115612A1, “CERTAIN 2,5-DIAZABICYCLO[4.2.0]OCTANES AND OCTAHYDROFURO[3,4-B]PYRAZINES AS GLP-1 RECEPTOR MODULATORS” (ASTRAZENECA AB, priority 2021, published 2025).

The target in one assay is T1, human GLP-1R receptor (Homo sapiens, UniProt P43220, L260F).
T1 construct: expressed in transfected cells; host or cells: CHO-K1 (ATCC CCL-61)
The experiment in a line: CHOK1 GLP-1R cAMP assay (HTRF). It counts as cell-based. The note with it: CHO-K1 cells stably expressing human GLP-1R. The method, then:
A cell line stably expressing the human GLP-1R receptor (NM_002062.5, including the naturally-occurring variant Leu260Phe) in a CHO-K1 (ATCC® CCL-61™) was used for assay.
GLP-1 receptor mediated agonist activity was determined in a cell-based assay measuring cyclic adenosine monophosphate (cAMP) levels in cells using Homogeneous Time-Resolved Fluorescence (HTRF) cAMP detection kit (CisBio catalog #62AM4PEC, cAMP Gs Dynamic range kit). The cAMP detection method is based on a competitive immunoassay, in which cAMP produced by the cells and cAMP labeled with the dye d2 compete for binding to a Europium-Cryptate-labeled anti-cAMP antibody. The specific HTRF signal is inversely proportional to the concentration of cAMP.
Compounds were added to individual well in 384 well-assay plates (Greiner #784076) using an Echo (LabCyte) dispenser from 10 mM stocks. Varying concentration of compounds were added to wells, and DMSO was used to normalize each well to a volume of 100 nL. A dose response curve of GLP-1(7-36)NH2 (Bachem H-6795) was included in each run. 5 μL of cAMP concentration response standards are applied in specified wells in the assay plates. Cryo-preserved cells are thawed and resuspended in assay buffer pre-heated to 37° C. (20 mM 2-[4-(2-hydroxyethyl)piperazin-1-yl]ethanesulfonic acid (HEPES) pH 7.4, lx Hank's Balanced Salt Solution (HBSS, Life Technologies #14065) supplemented with 0.1% (w/v) bovine serum albumin (Sigma, A-7030)). Cells were centrifuged at 250*g for 5 min at rt, and resuspended in room tempered assay buffer to a final density of 0.16*10^6 cell/mL, to deliver 800 cells/well. 5 μL of assay buffer with 1 mM 3-isobutyl-1-methylxanthin (IBMX; Sigma cat I-7018) was dispensed per well in assay plates using a multidrop combi (Thermo Scientific) subsequently 5 μL of cell suspension was distributed to relevant wells in the assay using a multidrop dispenser. Assay plates were incubated 20 min at rt.
Detection reagents, Europium-Cryptate-labeled anti-cAMP antibody and cAMP labeled with the dye d2, are diluted in lysis buffer, provided by the manufacturer. 5 μL of each detection reagent is supplemented to each assay well using a multidrop dispenser. Assay plates are incubated in the dark for at least one h. The HTRF signal is measured using the HTRF module (excitation: 337 nm, emission A: 665 nm and emission B: 620 nm) in Pherastar FSX (BMG Labtech).
Raw data were converted to pM cAMP using the cAMP standard curve included in each run. Converted data were further analyzed in Genedata Screener (Genedata) and EC50 determinations were made from agonist dose-response curves analyzed with a curve fitting program using a 4-parameter logistic dose response equation (Equation y=A+((B−A)/1+((C/x)^D))) where A is no stimulation, B is full stimulation, C is the EC50 and D is the Hill slope). The percent effect was determined relative to a saturating concentration of a full GLP-1R agonist (GLP-1(7-36)NH2 has 100% effect in this assay setup).
In general terms: Changes in cAMP serve as a functional read-out for many G protein-coupled receptors.

Another assay addresses T2, GLP-1R (Homo sapiens, UniProt P43220).
T2 construct: host or cells: EndoC-βH1
Briefly: EndoC cAMP accumulation assay (HTRF, EndoC-βH1 cells). It counts as cell-based. The conditions noted are these: EndoC-βH1 human pancreatic β cell line. An excerpt:
EndoC cAMP Accumulation Assay
A HTRF cAMP assay (cAMP Gs dynamic kit; CisoBio Cat #62AM4PEJ) was used to identify agonists of GLP-1R in a pancreatic insulinoma cell line (EndoC-PH1). […] EndoC-βH1 cells have detectable GLP-1R messenger ribonucleic acid (mRNA) as detected by quantitative polymerase chain reaction (qPCR). […] The EndoC-βH1 cell line is a valid model of human beta cells and applicable for screenings to identify novel drug target candidates (Mol. Metab., 2018, 8, 144-157). CisBio HTRF cAMP kits are based on a competitive immunoassay using cryptate-labelled anti-cAMP antibody and d2-labeled cAMP. The detection kit is intended for the direct quantitative determination of cAMP. The specific signal (i.e. energy transfer) is inversely proportional to the concentration of cAMP in the standard or sample. Test compounds (10 mM in DMSO) were diluted into assay buffer (HBSS (Sigma #H8264) supplemented with 25 mM HEPES (Gibco #15630, pH 7.4), 0.1% BSA (Sigma #A3059) and 0.5 mM IBMX (Sigma #I7018) included fresh on the day of the assay) into 96 well U-bottom plates (Greiner #650201). Diluted compounds were transferred to ECHO source polypropelene plates (Labcyte #P-05525) and dose response curves were dispensed acoustically using ECHO 550 into black shallow-well u-bottom 384-well HTRF Assay Plates (Corning 4514).
Cryovials of EndoC-H1 (supplied at 1×10e^7 cells/vial) were used directly for screening. The cryovials and were removed from N2(l) and thawed rapidly in a 37° C. water bath. The cells were resuspended in assay buffer and centrifuged at 300 g for 5 min. Cells were resuspended in assay buffer at the appropriate concentration, typically at 12e5 cells per mL (3000 cells per well, dependent on cell batch) and 2.5 μL diluted cells were added to all wells of destination plate by Multidrop combi reagent dispenser (Thermofisher). The plates were incubated at rt for 30 min. The assay was stopped by adding 2.5 μL anti-cAMP cryptate solution to all wells and 2.5 μL cAMP-d2 solution (both diluted 1:20 in lysis buffer) to columns 1-22 by Combi drop. A volume of 2.5 μL cAMP-d2 solution was added to wells E23 to P24 and 2.5 μL lysis buffer added to wells A23 to D24 by multichannel pipette. The plates were incubated at rt for 1 h and read on an Envision plate reader using excitation wavelength of 320 nm and emission of 590 nm and 660 nm.
Raw data from Envision is converted to % DeltaF according to the manufacturer's instructions. Dose response curves are analysed via 4-Parameter Logistical Analysis and assay plate Z′ values obtained. Samples are graphed as percentage (%) activation plots compared to GIP (1-42, Bachem H-5645) with assay window defined by negative control as basal cell cAMP levels and positive control are defined by maximum GIP (82.5 nM) signal. GLP-1 (7-36 amide, Bachem H-6795) dose response curve was included on all plates.

Molecules are shown by their SMILES.

T1 sequence (P43220 24-463 L260F): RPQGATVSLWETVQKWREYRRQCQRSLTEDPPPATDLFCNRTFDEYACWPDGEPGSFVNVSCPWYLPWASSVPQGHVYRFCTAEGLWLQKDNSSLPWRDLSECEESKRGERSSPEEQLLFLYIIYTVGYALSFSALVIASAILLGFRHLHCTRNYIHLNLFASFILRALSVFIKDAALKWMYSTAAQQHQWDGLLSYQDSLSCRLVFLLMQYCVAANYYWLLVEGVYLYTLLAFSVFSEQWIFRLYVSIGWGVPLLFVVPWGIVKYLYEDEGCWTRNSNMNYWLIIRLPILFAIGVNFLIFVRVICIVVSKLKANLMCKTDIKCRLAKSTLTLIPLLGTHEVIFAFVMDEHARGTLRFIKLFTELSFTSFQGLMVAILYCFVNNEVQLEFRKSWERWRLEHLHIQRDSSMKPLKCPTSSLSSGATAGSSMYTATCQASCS
T2 sequence (P43220 24-463): as the sequence (P43220 24-463 L260F) above, with F237L counted along it

Consider `N#Cc1ccc(COc2cccc(N3CCN(Cc4nc5cc(Cl)c(C(=O)O)cc5n4C[C@@H]4CCO4)[C@H]4CC[C@H]43)n2)c(F)c1` (single isomer, unassigned) [Example 7b], for which the EC50 (as a rule, the concentration giving half of the maximal effect) is 90 nM at human GLP-1R receptor and 40 nM at GLP-1R.
As to `N#Cc1ccc(COc2cccc(N3CCN(Cc4nc5ccc(C(=O)O)c(Cl)c5n4C[C@@H]4CCO4)[C@H]4CC[C@H]43)n2)c(F)c1` (single isomer, unassigned) [Example 8a], the values for the EC50 at human GLP-1R receptor and on GLP-1R were 6.1 nM and 28 nM, respectively.
The matching figures for `N#Cc1ccc(COc2cccc(N3CCN(Cc4nc5ccc(C(=O)O)c(Cl)c5n4C[C@@H]4CCO4)[C@H]4CC[C@H]43)n2)c(F)c1` (single isomer, unassigned) [Example 8b]: 28 nM and 41 nM.
Regarding `N#Cc1ccc(COc2cccc(N3CCN(Cc4nc5ccc(C(=O)O)c(Cl)c5n4C[C@@H]4CCO4)[C@H]4CC[C@H]43)n2)c(F)c1` (single isomer, unassigned) [Example 8c], the EC50 stood at 140 nM at human GLP-1R receptor and 620 nM on GLP-1R.
The matching figures for `N#Cc1ccc(COc2cccc(N3CCN(Cc4nc5cc(F)c(C(=O)O)cc5n4C[C@@H]4CCO4)[C@H]4CC[C@@H]43)n2)c(F)c1` (single isomer, unassigned) [Example 9a]: 180 nM and 69 nM.
The matching figures for `CCn1cncc1Cn1c(CN2CCN(c3cccc(OCc4ccc(Cl)cc4F)n3)[C@H]3CC[C@@H]32)nc2c(OC)cc(C(=O)O)cc21` (single isomer, unassigned) [Example 12b]: 8.9 nM and 16 nM.
Regarding `COc1cc(C(=O)O)cc2c1nc(CN1CCN(c3cccc(OCc4ccc(Cl)cc4F)n3)[C@@H]3COC[C@@H]31)n2C[C@@H]1CCO1` (single isomer, unassigned) [Example 16b, 2-(((4aR*,7aS*)-4-(6-((4-Chloro-2-fluorobenzyl)oxy)pyridin-2-yl)hexahydrofuro[3,4-b]pyrazin-1(2H)-yl)methyl)-4-methoxy-1-(((S)-oxetan-2-yl)methyl)-1H-benzo[d]imidazole-6-carboxylic acid], the EC50 on human GLP-1R receptor was 64 nM; on GLP-1R, 120 nM.
The matching figures for `O=C(O)c1cc(F)c2nc(CN3CCN(c4cccc(OCc5ccc(Cl)cc5F)n4)[C@@H]4COC[C@@H]43)n(C[C@H]3CCOC3)c2c1` (single isomer, unassigned) [Example 18a]: 110 nM and 89 nM.
For the compound `O=C(O)c1cc(F)c2nc(CN3CCN(c4cccc(OCc5ccc(Cl)cc5F)n4)[C@@H]4COC[C@@H]43)n(C[C@H]3CCOC3)c2c1` (single isomer, unassigned) [Example 18b], the values for the EC50 at human GLP-1R receptor and on GLP-1R were 57 nM and 15 nM, respectively.
The matching figures for `O=C(O)c1cc(F)c2nc(CN3CCN(c4cccc(OCc5ccc(Cl)cc5F)n4)[C@@H]4COC[C@@H]43)n(C[C@@H]3CCO3)c2c1` (single isomer, unassigned) [Example 19b, 2-(((4aR*,7aS*)-4-(6-((4-Chloro-2-fluorobenzyl)oxy)pyridin-2-yl)hexahydrofuro[3,4-b]pyrazin-1(2H)-yl)methyl)-4-fluoro-1-(((S)-oxetan-2-yl)methyl)-1H-benzo[d]imidazole-6-carboxylic acid]: 120 nM and 290 nM.
In the same order, the values of `O=C(O)c1ccc2nc(CN3CCN(c4cccc(OCc5ccc(Cl)cc5F)n4)[C@@H]4COC[C@@H]43)n(Cc3cocn3)c2c1` (single isomer, unassigned) [Example 20] are 35 nM and 37 nM.
The matching figures for `O=C(O)c1ccc2nc(CN3CCN(c4cccc(OCc5ccc(Cl)cc5F)n4)[C@@H]4COC[C@@H]43)n(Cc3cccnc3)c2c1` (single isomer, unassigned) [Example 21]: 74 nM and 71 nM.
As for `O=C(O)c1cc(Cl)c2nc(CN3CCN(c4cccc(OCc5ccc(Cl)cc5F)n4)[C@@H]4COC[C@@H]43)n(C[C@@H]3CCO3)c2c1` (single isomer, unassigned) [Example 22a, 4-Chloro-2-(((4aR*,7aS*)-4-(6-((4-chloro-2-fluorobenzyl)oxy)pyridin-2-yl)hexahydrofuro[3,4-b]pyrazin-1(2H)-yl)methyl)-1-(((S)-oxetan-2-yl)methyl)-1H-benzo[d]imidazole-6-carboxylic acid], the EC50 on human GLP-1R receptor amounted to 1 nM; at GLP-1R it was 6.6 nM.
Consider `O=C(O)c1cc(Cl)c2nc(CN3CCN(c4cccc(OCc5ccc(Cl)cc5F)n4)[C@@H]4COC[C@@H]43)n(C[C@@H]3CCO3)c2c1` (single isomer, unassigned) [Example 22b, 4-Chloro-2-(((4aR*,7aS*)-4-(6-((4-chloro-2-fluorobenzyl)oxy)pyridin-2-yl)hexahydrofuro[3,4-b]pyrazin-1(2H)-yl)methyl)-1-(((S)-oxetan-2-yl)methyl)-1H-benzo[d]imidazole-6-carboxylic acid], for which the EC50 on human GLP-1R receptor came out at 150 nM; on GLP-1R, 270 nM.
The matching figures for `Cc1nccn1CCn1c(CN2CCN(c3cccc(OCc4ccc(Cl)cc4F)n3)[C@@H]3COC[C@@H]32)nc2c(F)cc(C(=O)O)cc21` (single isomer, unassigned) [Example 23]: 170 nM and 110 nM.
The matching figures for `Cc1nccn1CCn1c(CN2CCN(c3cccc(OCc4ccc(Cl)cc4F)n3)[C@@H]3COC[C@@H]32)nc2c(Cl)cc(C(=O)O)cc21` (single isomer, unassigned) [Example 24]: 250 nM and 340 nM.
The matching figures for `Cc1nccn1CCn1c(CN2CCN(c3cccc(OCc4ccc(Cl)cc4F)n3)[C@@H]3COC[C@@H]32)nc2ccc(C(=O)O)cc21` (single isomer, unassigned) [Example 25a]: 110 nM and 170 nM.
With `Cc1nccn1CCn1c(CN2CCN(c3cccc(OCc4ccc(Cl)cc4F)n3)[C@@H]3COC[C@@H]32)nc2ccc(C(=O)O)cc21` (single isomer, unassigned) [Example 25b], the figures for the EC50 at human GLP-1R receptor and at GLP-1R were 250 nM and 1100 nM, respectively.
